A word on the IC50: it is the concentration needed to halve the response being measured.

Experimental findings from US20230031406A1, “COMPOUNDS AND COMPOSITIONS FOR TREATING CONDITIONS ASSOCIATED WITH NLRP ACTIVITY” (Novartis AG, priority 2018, published 2023) are described below.

For the assay, the system named is PMA-differentiated THP-1 cells. The assay is described as follows: IL-1β production in PMA-differentiated THP-1 cells stimulated with gramicidin (hTHP-1 assay containing 2% fetal bovine serum; Procedures 1 and 2). In kind it is cell-based, human. Conditions: 2% fetal bovine serum. The gist of the method:
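Compound titrations in 0.37% final DMSO were added to THP-1 cells that had been plated after 16-18 h PMA treatment, 50,000 per well in 2% FBS. One hour later the cells received gramicidin (5 μM, 2 h) and were centrifuged. HTRF detected IL-1β in the collected supernatants.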

Setting [1] is: Homo sapiens, THP-1, Table B2, class symbols, read-out: hTHP-1 IC50.
Where [2] appears, read: Table B4, class symbols, read-out: hTHP-1 IC50.
Setting [3] is: Homo sapiens, THP-1, Table B2, numeric bounds, read-out: hTHP-1 IC50.
Where [4] appears, read: Homo sapiens, THP-1, Table B3, hTHP-1 assay, class symbols, read-out: IC50.
Setting [5] is: Homo sapiens, THP-1, Table B1, numeric bounds, read-out: Average IC50 of compounds in hTHP-1 assay: hTHP-1 IC50.
Where [6] appears, read: Table B1, class symbols, read-out: Average IC50 of compounds in hTHP-1 assay: hTHP-1 IC50.
Where [7] appears, read: Table B2, class symbols, read-out: hTHP-1 IC50.

Read-outs that look alike come from different tables or passages of the source.

Take `COCc1nc(C(C)(C)O)sc1S(N)(=O)=NC(=O)Nc1c2c(nc3c1CCC3)CCC2` (stereo not shown) [Compound 689, N′-((1,2,3,5,6,7-hexahydrodicyclopenta[b,e]pyridin-8-yl)carbamoyl)-2-(2-hydroxypropan-2-yl)-4-(methoxymethyl)thiazole-5-sulfonimidamide]: the IC50 under setting [1] lay in the range of 1 to 5 µM.

With `CC(C)n1cc(F)c(S(N)(=O)=NC(=O)Nc2c3c(nc4c2CC[C@H]4C)CCC3)n1` (single isomer, unassigned) [Example 757, (R) or (S)-4-fluoro-1-isopropyl-N′-(((R)-3-methyl-1,2,3,5,6,7-hexahydrodicyclopenta[b,e]pyridin-8-yl)carbamoyl)-1H-pyrazole-3-sulfonimidamide], the IC50 under setting [2] was 0.008 to 0.04 µM.

As for `Cc1c(CC2CC2)nc2c(c1NC(=O)N=S(N)(=O)c1cc(C(C)(C)O)cs1)CCC2` (single isomer, unassigned) [Compound 665a, (S) or (R)-N′-((2-(cyclopropylmethyl)-3-methyl-6,7-dihydro-5H-cyclopenta[b]pyridin-4-yl)carbamoyl)-4-(2-hydroxypropan-2-yl)thiophene-2-sulfonimidamide], the IC50 under setting [3] was over 30 µM.

As for `C[C@H](O)c1csc([S@](N)(=O)=NC(=O)Nc2c3c(nc4c2CC[C@H]4C)CCC3)c1` (single isomer, unassigned) [Example 664, (R)-4-((S) or (R)-1-hydroxyethyl)-N′-(((R)-3-methyl-1,2,3,5,6,7-hexahydrodicyclopenta[b,e]pyridin-8-yl)carbamoyl) thiophene-2-sulfonimidamide], the IC50 under setting [4] was 0.04 to 0.2 µM.

With `Cc1c(C(=O)O)nc2c(c1NC(=O)N=S(N)(=O)c1cnc(C(C)(C)O)s1)CCC2` (stereo not shown) [Compound 712], the IC50 under setting [3] is over 30 µM.

Take `CCn1nc(S(N)(=O)=NC(=O)Nc2c3c(nc4c2CCC4(C)C)CCC3)cc1CO` (single isomer, unassigned) [Example 725, (S) or (R)-N′-((3,3-dimethyl-1,2,3,5,6,7-hexahydrodicyclopenta[b,e]pyridin-8-yl)carbamoyl)-1-ethyl-5-(hydroxymethyl)-1H-pyrazole-3-sulfonimidamide]: where the note is “Homo sapiens, THP-1, Table B3, hTHP-1 assay, numeric values, read-out: IC50”, the IC50 is over 30 µM.

As for `CC1CCc2c1nc1c(c2NC(=O)N=S(N)(=O)c2ccc(CN(C)C)cc2)CCC1` (single isomer, unassigned) [Compound 134aa, (S,S) or (S,R)-4-((di-methylamino)methyl)-N′-((3-methyl-1,2,3,5,6,7-hexahydrodicyclo-penta[b,e]pyridin-8-yl)carbamoyl)benzene-sulfonimidamide], under setting [5], the IC50 is over 30 µM.

In the case of `Cc1sc(S(N)(=O)=NC(=O)Nc2c3c(nc4c2CCC4)CCC3)cc1C(C)(C)O` (single isomer, unassigned) [Compound 107a, (R) or (S)-N′-((1,2,3,5,6,7-hexahydrodicyclo-penta[b,e]pyridin-8-yl)carbamoyl)-4-(2-hydroxypropan-2-yl)-5-methylthiophene-2-sulfonimidamide], the IC50 under setting [6] is 0.2 to 1 µM.

`C[C@@H]1CCc2c1nc1c(c2NC(=O)N=S(N)(=O)c2nn(-c3ccccc3)cc2F)CCC1` (stereo partly drawn) [Example 748, 4-Fluoro-N′-(((R)-3-methyl-1,2,3,5,6,7-hexahydrodicyclopenta [b, e]pyridin-8-yl)carbamoyl)-1-phenyl-1H-pyrazole-3-sulfonimidamide]: the IC50 (Homo sapiens, THP-1, Table B4, class symbols, read-out: hTHP-1 IC50) was 0.2 to 1 µM.

For the compound `CC(C)(O)c1cnc(S(N)(=O)=NC(=O)Nc2c3c(nc4c2CCC4O)CCC3)s1` (stereo not shown) [Compound 710], the IC50 under setting [3] is over 30 µM.

`Cc1c(C2CC2)nc2c(c1NC(=O)N=S(N)(=O)c1cnc(C(C)(C)O)s1)CCC2` (single isomer, unassigned) [Compound 124b, (R) or (S)-N′-((2-cyclopropyl-3-methyl-6,7-dihydro-5H-cyclopenta[b]pyridin-4-yl)carbamoyl)-2-(2-hydroxypropan-2-yl)thiazole-5-sulfonimidamide]: under setting [6], the IC50 was 0.2 to 1 µM.

Regarding `Cc1nc2c(c(NC(=O)N=S(N)(=O)c3cnc(C(C)(O)CO)s3)c1C(C)C)CCC2` (stereo not shown) [Compound 627, 2-(1,2-Dihydroxypropan-2-yl)-N′-((3-isopropyl-2-methyl-6,7-dihydro-5H-cyclopenta[b]pyridin-4-yl)carbamoyl)thiazole-5-sulfonimidamide], under setting [1], the IC50 is 0.2 to 1 µM.

For the compound `CCc1nc2c(c(NC(=O)N=S(N)(=O)c3sc(C(C)(C)O)cc3F)c1C1CC1)CCC2` (single isomer, unassigned) [Compound 631b, (R) or (S)-N′-((3-cyclopropyl-2-ethyl-6,7-dihydro-5H-cyclopenta[b]pyridin-4-yl)carbamoyl)-3-fluoro-5-(2-hydroxypropan-2-yl)thiophene-2-sulfonimidamide], the IC50 under setting [7] was in the range of 0.04 to 0.2 µM.

`CC(C)(O)c1cc(F)c(S(N)(=O)=NC(=O)Nc2cc(CC(F)(F)F)nc3c2CCC3)s1` (single isomer, unassigned) [Example 689, (R) or (S)-3-Fluoro-5-(2-hydroxypropan-2-yl)-N′-((2-(2,2,2-trifluoroethyl)-6,7-dihydro-5H-cyclopenta[b]pyridin-4-yl)carbamoyl)thiophene-2-sulfonimidamide]: under setting [4], the 50% inhibitory concentration (IC50) was in the range of 1 to 5 µM.

For `CC(C)c1cc(NC(=O)N=S(N)(=O)c2cc(C(C)(C)O)cs2)c2c(n1)CCC2` (stereo not shown) [Compound 182, 4-(2-hydroxypropan-2-yl)-N′-((2-isopropyl-6,7-dihydro-5H-cyclopenta[b]pyridin-4-yl)carbamoyl)thiophene-2-sulfonimidamide], under setting [5], the IC50 is over 14 µM.

With `CC(C)(O)c1nc(CCO)c(S(N)(=O)=NC(=O)Nc2c3c(nc4c2CCC4)CCC3)s1` (single isomer, unassigned) [Compound 118a, (R) or (S)-N′-((1,2,3,5,6,7-hexahydrodicyclo-penta[b,e]pyridin-8-yl)carbamoyl)-4-(2-hydroxyethyl)-2-(2-hydroxypropan-2-yl)thiazole-5-sulfonimidamide], the IC50 (Homo sapiens, THP-1, Table B1, class symbols, read-out: Average IC50 of compounds in hTHP-1 assay: hTHP-1 IC50) lay in the range of 0.2 to 1 µM.

As to `Cc1c(C2CC2)nc2c(c1NC(=O)N=S(N)(=O)c1cc(C(C)(C)O)n(-c3ccccc3)n1)CCC2` (single isomer, unassigned) [Compound 651a, (S) or (R)-N′-((2-cyclopropyl-3-methyl-6,7-dihydro-5H-cyclopenta[b]pyridin-4-yl)carbamoyl)-5-(2-hydroxypropan-2-yl)-1-phenyl-1H-pyrazole-3-sulfonimidamide], the IC50 under setting [7] fell in the range of 5 to 30 µM.

Turning to `Cc1cc(S(N)(=O)=NC(=O)Nc2c3c(nc4c2CCC4)CCC3)sc1C(C)(C)O` (stereo not shown) [Compound 692, N′-((1,2,3,5,6,7-hexahydrodicyclopenta[b,e]pyridin-8-yl)carbamoyl)-5-(2-hydroxypropan-2-yl)-4-methylthiophene-2-sulfonimidamide], the IC50 under setting [1] was in the range of 1 to 5 µM.

Turning to `CC1CCc2c1nc1c(c2NC(=O)N=S(N)(=O)c2cnn(C(C)C)c2)CCC1` (single isomer, unassigned) [Compound 171a, (S, R) and (S, S) or (R, S) and (R, R)-1-Isopropyl-N′-((3-methyl-1,2,3,5,6,7-hexahydrodicyclopenta [b,e]pyridin-8-yl)carbamoyl)-1H-pyrazole-4-sulfonimidamide], the IC50 under setting [3] was over 30 µM.

`CC(C)(O)c1ncc(S(N)(=O)=NC(=O)Nc2c3c(nc4c2CCC4F)CCC3)s1` (single isomer, unassigned) [Compound 183c, (R,S) or (R,R)-N′-((3-fluoro-1,2,3,5,6,7-hexahydrodicyclo-penta[b,e]pyridin-8-yl)carbamoyl)-2-(2-hydroxypropan-2-yl)thiazole-5-sulfonimidamide]: the IC50 under setting [6] is 5 to 30 µM.

With `CC(C)(O)c1ccnc(S(N)(=O)=NC(=O)Nc2c3c(nc4c2CCC4(C)C)CCC3)c1` (single isomer, unassigned) [Compound 620a, (S) or (R)-N′-((3,3-dimethyl-1,2,3,5,6,7-hexahydrodicyclopenta [b,e]pyridin-8-yl)carbamoyl)-4-(2-hydroxypropan-2-yl)pyridine-2-sulfonimidamide], the IC50 under setting [3] was over 30 µM.

With `CCc1c(C2CC2)nc2c(c1NC(=O)N=S(N)(=O)c1cnc(C(C)(C)O)s1)CCC2` (stereo not shown) [Compound 675, N′-((2-cyclopropyl-3-ethyl-6,7-dihydro-5H-cyclopenta[b]pyridin-4-yl)carbamoyl)-2-(2-hydroxypropan-2-yl)thiazole-5-sulfonimidamide], the IC50 under setting [1] was in the range of 1 to 5 µM.

`CCc1c(C(F)(F)F)nc2c(c1NC(=O)N=S(N)(=O)c1nn(CC)cc1F)CCC2` (single isomer, unassigned) [Example 772, (S) or (R)-1-ethyl-N′-((3-ethyl-2-(trifluoromethyl)-6,7-dihydro-5H-cyclopenta[b]pyridin-4-yl)carbamoyl)-4-fluoro-1H-pyrazole-3-sulfonimidamide]: under setting [2], the IC50 was in the range of 5 to 30 µM.

In the case of `CC1CCc2c1nc1c(c2NC(=O)N=S(N)(=O)c2ncc(C(C)(C)O)s2)CCC1` (single isomer, unassigned) [Compound 140bb, (S,R) or (S,S)-5-(2-hydroxypropan-2-yl)-N′-((3-methyl-1,2,3,5,6,7-hexa-hydrodicyclo-penta[b,e]pyridin-8-yl)carbamoyl)thiazole-2-sulfonimidamide], under setting [5], the IC50 was over 30 µM.

Consider `CC(C)(O)c1cnc(S(N)(=O)=NC(=O)Nc2c3c(nc4c2CCC4)CCC3)s1` (single isomer, unassigned) [Compound 167a, (S) or (R)-N′-((1,2,3,5,6,7-hexahydrodicyclo-penta[b,e]pyridin-8-yl)carbamoyl)-5-(2-hydroxypropan-2-yl)thiazole-2-sulfonimidamide], for which the IC50 under setting [6] was 5 to 30 µM.
